Experimental data as given in ChEMBL document CHEMBL4665680, “Drug Induced Liver Injury (DILI). Mechanisms and Medicinal Chemistry Avoidance/Mitigation Strategies” (J Med Chem, 2020).

Assay: Toxicity in po dosed human assessed as maximum daily dose
Format: organism-based
Details: in vivo

Row | Structure (SMILES) | Activity [mg]
1 | CC(C)(C)NC(=O)[C@@H]1C[C@@H]2CCCC[C@@H]2CN1C[C@@H](O)[C@H](Cc1ccccc1)NC(=O)[C@H](CC(N)=O)NC(=O)c1ccc2ccccc2n1 | 2000
2 | CCCN(CCC)C(=O)Cc1c(-c2ccc(Cl)cc2)nc2ccc(Cl)cn12 [ALPIDEM] | 150
3 | COc1ccc(Cl)cc1C(=O)NCCc1ccc(S(=O)(=O)NC(=O)NC2CCCCC2)cc1 [GLYBURIDE] | 20
4 | CCCCC1=NC2(CCCC2)C(=O)N1Cc1ccc(-c2ccccc2-c2nnn[nH]2)cc1 [IRBESARTAN] | 300
5 | CC(=O)N1CCN(c2ccc(OCC3COC(Cn4ccnc4)(c4ccc(Cl)cc4Cl)O3)cc2)CC1 (stereo not drawn) [KETOCONAZOLE] | 400
6 | CS(=O)(=O)CCNCc1ccc(-c2ccc3ncnc(Nc4ccc(OCc5cccc(F)c5)c(Cl)c4)c3c2)o1 [LAPATINIB] | 1500
7 | CCCCc1nc(Cl)c(CO)n1Cc1ccc(-c2ccccc2-c2nn[nH]n2)cc1 [LOSARTAN] | 100
8 | CCc1nn(CCCN2CCN(c3cccc(Cl)c3)CC2)c(=O)n1CCOc1ccccc1 [NEFAZODONE] | 600
9 | COC(=O)C1=C(C)NC(C)=C(C(=O)OCCN(C)Cc2ccccc2)C1c1cccc([N+](=O)[O-])c1 (stereo not drawn) [NICARDIPINE] | 120
10 | CCc1ccc(CCOc2ccc(CC3SC(=O)NC3=O)cc2)nc1 (stereo not drawn) [PIOGLITAZONE] | 45
11 | COC(=O)[C@H]1[C@H]2C[C@@H]3c4[nH]c5cc(OC)ccc5c4CCN3C[C@H]2C[C@@H](OC(=O)c2cc(OC)c(OC)c(OC)c2)[C@@H]1OC [RESERPINE] | 0.5
12 | CN(CCOc1ccc(CC2SC(=O)NC2=O)cc1)c1ccccn1 (stereo not drawn) [ROSIGLITAZONE] | 8
13 | Cc1c(C)c2c(c(C)c1O)CCC(C)(COc1ccc(CC3SC(=O)NC3=O)cc1)O2 (stereo not drawn) [TROGLITAZONE] | 600
